In patent publication US20250099400A1, “TERPENES FOR USE IN MODULATION OF A PHY[…]” (BUZZELET DEVELOPMENT AND TECHNOLOGIES LTD., priority 2022, published 2025):
≈ marks a conversion by molar mass, not a printed value.

tested on: not listed separately; assay: Solubility in the test solutions; conditions: 24 mM K+ solution, saline or isotonic, kinetic from dmso stock

For `CCCCCc1cc(O)c2c(c1)OC(C)(C)[C@@H]1CCC(C)=C[C@@H]21` [THC, tetrahydrocannabinol, reference compound], which solubility is on record?
The solubility was 10 µM (≈ 3.14 µg/mL).

same assay, conditions: CB1 dose-response experiment; excluded from analysis

For `C/C1=C\CC/C(C)=C/CC(C)(C)/C=C/C1` [humulene], which “solubility relative to the tested concentration range” value is on record?
The value was “below the tested concentration range”.

For `C=C1CC/C=C(\C)CC[C@@H]2[C@@H]1CC2(C)C` [β-caryophyllene], which “solubility relative to the tested concentration range” value is on record?
Its value is “below the tested concentration range”.

Which “solubility relative to the tested concentration range” value does the source give for `C=CC(C)(O)CCC=C(C)CCC=C(C)C` (stereo not drawn) [nerolidol] here?
Its value is “below the tested concentration range”.

Which “solubility relative to the tested concentration range” value does the source give for `CC(C)=CCC[C@](C)(O)C1CC=C(C)CC1` (stereo partly drawn) [bisabolol] here?
The value was “below the tested concentration range”.

molecular target: T1, CB1 receptor (Homo sapiens, UniProt P21554); assay: CB1 receptor-activated GIRK currents in Xenopus oocytes (two-electrode voltage clamp); type: cell-based; conditions: THC concentrations each supplemented with terpene at a weight/weight ratio of 1/10, compared with THC alone
T1 construct: expressed in transfected cells; host or cells: Xenopus laevis oocytes injected with in vitro transcribed cRNA
Experimental: cDNA plasmids of the two subunits of the G protein-activated inwardly rectifying K^+ channel (GIRK) (GIRK1 and GIRK2), the CB1 receptor, the CB2 receptor, and the α subunit of the G-protein (Gαi3) were linearized with the appropriate restriction enzymes. The linearized plasmids were transcribed in vitro using a standard procedure.
Oocytes were isolated from female adult X. laevis anesthetized (with 1 g/L MS-222) and incubated in NDE96 solution composed of ND96 (in mM: 96 NaCl, 2 KCl, 1 CaCl2, 1 MgCl2, 5 Hepes, with pH adjusted to 7.5 with NaOH) with the addition of 2.5 mM Na^+ pyruvate, 100 units/ml penicillin, and 100 μg/ml streptomycin (16). The isolated oocytes were injected with the relevant cRNAs: cRNAs of CB1 receptor and CB2 receptor (2 ng) and GIRK1 and GIRK2 (200 pg each) were injected. In addition, cRNA of Gαi3 (1000 pg) was injected to decrease the basal GIRK current (IK) and to improve the relative activation by the agonist.
Currents were measured 3-5 days after cRNA injection and were recorded using the standard two-electrode voltage clamp technique (Axoclamp 2B amplifier, Axon Instruments, Foster City, CA).
Each oocyte was placed in a recording bath containing ND96 solution and was impaled with two electrodes pulled from 1.5-mm Clark capillaries (Warner instruments, Hamden, CT). Both electrodes were filled with a 3M KCI solution and the electrode resistance was between 1 and 5 MΩ. The CB1 receptor-mediated GIRK and the CB2 receptor-mediated GIRK currents were measured in 24 mM K^+ solution (in mM: 72 NaCl, 24 KCl, 1 CaCl2, 1 MgCl2, 5 Hepes, with pH adjusted to 7.5 with KOH). Ba^+2 (1 mM) was used to block the currents in order to verify that the measured currents were indeed mediated by GIRK channels.
The dose response curves were fitted by equation 1:
Y=Bottom+X*(Top-Bottom)/(EC50+X), (1)
The responses evoked in the same oocyte by either THC and\or terpenes measurements, were normalized to this reference value.
The Xenopus oocytes functional expression system was used to test the possibility that the presence of various terpenes affects the activation of the CB1 receptor, as depicted schematically in FIG. 1A. To this end, Xenopus oocytes were injected with cRNAs of proteins involved in the pathway leading to activation of K^+ currents by CB1 receptor via βγ subunits of the G-proteins: The CB1 receptor, the two subunits of the GIRK channel (GIRK1 and GIRK2), and the Gαi3 subunit.
First, the dependence of THC-induced K^+ current (ITHC) on THC concentration (dose-response, DR) was measured. The oocyte was voltage-clamped to −80 mV in a low K^+ (2 mM K^+) solution, ND96. Basal GIRK current (IK) was developed upon replacement of the ND96 by the 24 mM K^+solution. This current represents the basal activation of GIRK channel by endogenous By subunits present in the oocytes. Then, five different concentrations of THC were applied sequentially in ascending order giving rise to ITHC. This current was terminated upon washout of THC. Employing this basic experimental protocol, a full DR curve was constructed.
In order to compare between oocytes, ITHC at any particular THC concentration was normalized to ITHC obtained at a 10 μM THC, defined as the reference response, at this same oocyte.

T1 sequence (P21554 whole entry): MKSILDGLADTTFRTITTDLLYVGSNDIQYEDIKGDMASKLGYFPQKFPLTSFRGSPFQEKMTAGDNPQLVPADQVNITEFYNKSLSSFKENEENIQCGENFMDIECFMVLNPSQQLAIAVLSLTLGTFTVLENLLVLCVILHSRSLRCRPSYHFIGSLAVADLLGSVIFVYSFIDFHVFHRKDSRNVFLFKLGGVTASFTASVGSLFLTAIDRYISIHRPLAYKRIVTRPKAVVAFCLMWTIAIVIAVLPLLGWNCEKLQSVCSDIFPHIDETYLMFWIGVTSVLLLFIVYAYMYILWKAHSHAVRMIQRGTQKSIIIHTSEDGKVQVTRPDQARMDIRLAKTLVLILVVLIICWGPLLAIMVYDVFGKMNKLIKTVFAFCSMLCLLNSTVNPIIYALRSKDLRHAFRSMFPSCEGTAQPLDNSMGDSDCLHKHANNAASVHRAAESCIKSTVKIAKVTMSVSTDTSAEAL

For `C=C1CCC2CC1C2(C)C` (stereo not drawn) [beta pinene, β-pinene], which “effect of terpene addition on the potency of THC in CB1 receptor activation” value (shortened to “effect of terpene addition”) is on record?
Its value is “significantly enhances the potency of THC”.

For `CC1(C)C2CCC1(C)C(O)C2` (stereo not drawn) [borneol], which “effect of terpene addition” value is on record?
The value was “significantly enhances the potency of THC”.

With `C=CC(C)=CCC=C(C)C` [ocimene] as the molecule, how does the “effect of terpene addition” value read?
Its value is “significantly enhances the potency of THC”.

Which “effect of terpene addition” value does the source give for `C=CC(C)(O)CCC=C(C)C` (racemic) [linalool] here?
Its value is “significantly enhances the potency of THC”.

Which “effect of terpene addition” value does the source give for `C=C(C)[C@H]1CC=C(C)CC1` [limonene, limonene-D] here?
Its value is “significantly enhances the potency of THC”.

Which “effect of terpene addition” value does the source give for `CC(C)=CCC/C(C)=C/CO` [geraniol] here?
The value was “significantly enhances the potency of THC”.

For `C=C1CCC2(C(C)C)CC12` (stereo not drawn) [sabinene], which “effect of terpene addition” value is on record?
The value was “significantly enhances the potency of THC”.
